In patent US20170151215A1, “USE OF ROTIGOTINE FOR TREATING THE RESTLESS LEG SYNDROME” (UCB PHARMA GMBH, priority 2002, published 2017):

How the values were obtained:
[1] = tested on: Restless Leg Syndrome (RLS); conditions: cited from earlier work; for effectiveness in RLS / side effects: short-term therapy studies; for side effects: usually in the beginning and as a function of the dosage
[2] = tested on: patients suffering from moderate to very severe idiopathic Restless Leg Syndrome; test: placebo-controlled, double-blind, randomized clinical test of rotigotine TTS in Restless Leg Syndrome patients; format: in vivo, human; conditions: for Reduction of the average IRLSSG Value as compared to Placebo Treatment by Day 8: 8 days treatment
Text: The rotigotine TTS produced per one of the above implementation examples was investigated in placebo-controlled, double-blind, randomized clinical tests at several centers, covering in a study with triple-branched parallel groups 63 patients who were suffering from moderate to very severe idiopathic Restless Leg Syndrome conditions.
The average age of the patients was 58.3 years. Randomization in the three treatment groups in terms of gender, age and severity of prior illnesses was reasonably balanced.
Over a treatment period of eight (8) days the patients of one group were treated with 5 cm^2 TTS and the patients of another group were treated with 10 cm^2 TTS. For a comparison the patients in the placebo group were treated with a placebo TTS. Within 24 hours, each of the above-mentioned drug-containing TTS's released 2.25 mg and, respectively, 4.5 mg rotigotine to the patient concerned.
As a result of the prespecified primary effectiveness the activities of daily life and the motoricity had changed, based on the generally accepted rating scale of the International Restless Leg Syndrome Study Group (IRLSSG), from the initial value to that in the concluding treatment evaluation (8th day).
On the basis of 10 questions, the IRLSSG measures and rates the following clinical parameters in Restless Leg patients:
The overall IRLSSG rating is derived from the individual values as follows:
First, an initial starting value is determined for each patient participating in the study. This is done by adding up the individual IRLSSG parameter values as of Day 0, i.e. before the treatment. Over the course of the treatment the IRLSSG values are compared with the starting value and any changes from that starting value are recorded. Finally, the average improvement of the IRLSSG value as of Day 8 over the starting value is determined by calculating the average of all test subjects. The resulting value is called CAS—(complete analysis set) randomized average change from the starting value of the overall IRLSSG rating.
Patients suffering from the Restless Leg Syndrome have been known to display a relatively strong response to placebos, meaning that even when treated with placebos these Restless Leg Syndrome patients show a certain improvement of their IRLSSG values. It is therefore important to compare any effect of the drug treatment with the degree of the IRLSSG improvement obtained through placebo treatment over the same time period. Thus, the final assessment of the improvement takes into account the effect of a placebo treatment during the same time period.

N[C@@H](Cc1ccc(O)c(O)c1)C(=O)O [L-DOPA, levodopa]
effect on the disorder (RLS) ([1]; long-term therapy): clear mitigation of the disorder

CCCN(CCc1cccs1)[C@H]1CCc2c(O)cccc2C1 [Rotigotine, (-)-5,6,7,8-tetrahydro-6-[propyl [2-(2-thienyl)ethyl]amino]-1-naphtol]
Reduction of the average IRLSSG Value as compared to Placebo Treatment by Day 8 ([2]; 5 cm^2 TTS, 2.25 mg rotigotine per 24 hours, p (one side) 0.09): 3.6 | Reduction of the average IRLSSG Value as compared to Placebo Treatment by Day 8 ([2]; 10 cm^2 TTS, 4.5 mg rotigotine per 24 hours, p (one side) 0.04): 6.3 | skin reactions at the point of application ([2]; administered via the TTS): generally very minor | tolerability ([2]; administered via the TTS): generally well tolerated | tolerability ([2]; administered via the TTS, listed as rotigotine): well tolerated and safe | subjective symptoms (tingling, cramps and pain in the legs, restlessness during the night, difficulties falling or remaining asleep) ([2]; end of the 8-day treatment, both patient groups (5 cm^2 and 10 cm^2 TTS)): either disappeared or diminished to a tolerable minimum | daytime weariness, nausea, dizziness, vomiting, insomnia caused by the treatment ([2]; patient reports, as a function of the dose administered): did not or only to a very minimal extent cause | clinical improvement in patients in a moderate to severe stage of Restless Leg Syndrome ([2]; transdermally administered once daily): distinct clinical improvement

CC(C)C[C@H]1C(=O)N2CCC[C@H]2[C@]2(O)O[C@](NC(=O)[C@@H]3C[C@@H]4c5cccc6[nH]cc(c56)C[C@H]4N(C)C3)(C(C)C)C(=O)N12 [alpha dihydroergocryptine]
effectiveness in RLS [1]: effective | side effects [1]: nausea, vomiting, dizziness, hypotension, constipation or insomnia

CC(C)C[C@H]1C(=O)N2CCC[C@H]2[C@]2(O)O[C@](NC(=O)[C@@H]3C=C4c5cccc6[nH]c(Br)c(c56)C[C@H]4N(C)C3)(C(C)C)C(=O)N12 [bromocriptine]
side effects [1]: nausea, vomiting, dizziness, hypotension, constipation or insomnia

C=CCN1C[C@H](C(=O)N(CCCN(C)C)C(=O)NCC)C[C@@H]2c3cccc4[nH]cc(c34)C[C@H]21 [cabergolin]
effectiveness in RLS [1]: effective | side effects [1]: nausea, vomiting, dizziness, hypotension, constipation or insomnia

Clc1cccc(Cl)c1NC1=NCCN1 [clonidine, 2-(2,6-dichloroanilino)-4,5-dihydroimidazol]
frequency of waking up ([1]; treatment of RLS): no effect | periodic leg movement during sleep (PLMS) ([1]; treatment of RLS): no effect | quality of sleep ([1]; treatment of RLS): no effect | soporiferous latency ([1]; treatment of RLS): reduced

CCN(CC)C(=O)N[C@H]1C=C2c3cccc4[nH]cc(c34)C[C@H]2N(C)C1 [lisuride]
effectiveness in RLS [1]: effective | side effects [1]: nausea, vomiting, dizziness, hypotension, constipation or insomnia

CCCN1C[C@H](CSC)C[C@@H]2c3cccc4[nH]cc(c34)C[C@H]21 [pergolide]
effectiveness in RLS [1]: effective | side effects [1]: nausea, vomiting, dizziness, hypotension, constipation or insomnia

CCCN[C@H]1CCc2nc(N)sc2C1 [pramipexol]
serious side effect ([1]; in vivo): Attacks of drowsiness | effectiveness in RLS [1]: effective | side effects [1]: nausea, vomiting, dizziness, hypotension, constipation or insomnia

CCCN(CCC)CCc1cccc2c1CC(=O)N2 [ropinirol]
effectiveness in RLS [1]: effective | side effects [1]: nausea, vomiting, dizziness, hypotension, constipation or insomnia
